Patent US8063008B2, “Enzymatic production of peracids using perhydrolytic enzymes” (E. I. du Pont de Nemours and Company, priority 2005, dated 2011)
Where “and” joins values, the source holds several entries; their conditions need not be identical. Equal entries are not always repeated. Where two headings read alike, the source gives them in different places.

Columns and labels:
[1] = Enzymatic perhydrolysis of triacetin using a combination of lipase and Neutrase at pH 4.0 and 6.5 (Example 24); type: biochemical; conditions: triacetin 250 mM, H2O2 500 mM, 22° C.
Experimental: Reaction mixtures were prepared containing 1 mg lipase (A “Amano” 12 (Amano), Validase AN (Valley Research), or ICR-110 (BioCatalytics)), and 20 μL Neutrase® (Novozymes) in 1.0 mL of 50 mM buffer (either sodium acetate/acetic acid buffer at pH 4.0, or potassium phosphate buffer at pH 6.5), additionally containing triacetin (250 mM) and hydrogen peroxide (500 mM). […] A portion of the filtered reaction samples was diluted 1:10 with dd water and analyzed for hydrogen peroxide, and the remaining portion of the sample was directly analyzed for peracid using the HPLC assay method (Table 29). Reactions were also run with lipase alone or Neutrase® alone for comparison of peracetic acid concentrations produced without the combination of lipase and Neutrase®.

[2] = Enzymatic perhydrolysis of a mixture of diacetin (250 mM), triacetin (88 mM) and monoacetin (192 mM) using lipase and Neutrase at pH 4.0 and 6.5 (Example 25); type: biochemical; conditions: monoacetin 192 mM, H2O2 500 mM, 22° C.
Experimental: Reaction mixtures were prepared containing 1 mg lipase (A “Amano” 12 (Amano), Validase AN (Valley Research), or ICR-110 (BioCatalytics)), and 20 μL Neutrase® (Novozymes) in 1.0 mL of 50 mM buffer (either sodium acetate/acetic acid buffer at pH 4.0, or potassium phosphate buffer at pH 6.5), additionally containing a mixture of diacetin (250 mM), triacetin (88 mM) and monoacetin (192 mM) and hydrogen peroxide (500 mM). After stirring for 5 or 30 minutes at 22° C., a 0.250-mL sample was filtered using a 30,000 NMWL filter (Millipore UltraFree-MC) centrifuged for 2 minutes at 12,000 RPM. A portion of the filtered reaction samples was diluted 1:10 with dd water and analyzed for hydrogen peroxide, and the remaining portion of the sample was directly analyzed for peracid using the HPLC assay method (Table 30). Reactions were also run with lipase alone or Neutrase® alone for comparison of peracetic acid concentrations produced without the combination of lipase and Neutrase®.

[3] = Enzymatic perhydrolysis of propyl acetate at pH 6.5 (Example 11, comparative); type: biochemical; conditions: pH 6.5, 2 mg enzyme
Experimental: Into a 4-mL glass vial with stir bar was added 2 mg of one of the following enzymes: acetylcholinesterase (Sigma, C-2888), Lipase G “Amano” 50 (Amano), or Chirazyme L2, lyo. (C. antartica lipase B, BioCatalytics) dissolved in 0.050 mL of 50 mM potassium phosphate buffer (pH 6.5). To the vial was then added either a) 0.930 mL of a solution containing 50 mM potassium phosphate buffer (pH 6.5) and 215 mM propyl acetate, followed by 0.021 mL 30% hydrogen peroxide (200 mM final hydrogen peroxide concentration) or b) 0.900 mL of a solution containing 278 mM triacetin in 50 mM potassium phosphate buffer (pH 6.5), 0.024 mL of 50 mM potassium phosphate buffer (pH 6.5), and 0.026 mL 30% hydrogen peroxide (250 mM final concentration). […] A portion of the resulting filtrate was diluted 1:10 with dd water and analyzed for hydrogen peroxide, and the remaining portion of the filtrate was directly analyzed for peracid using the HPLC assay method (Table 12).

E. coli ATCC 11229 = assay: Determination of Minimum Biocidal Concentration (MBC), XTT reduction inhibition (Example 21); type: cell-based; conditions: for replicate OD (450 nm): replicates 1-8
Source text: The method described by J. Gabrielson, et al. (J. Microbiol. Methods 50: 63-73 (2002)) was employed for determination of the Minimum Biocidal Concentration (MBC) of peracids, or for determination of the MBC of hydrogen peroxide and enzyme substrates. The assay method is based on XTT reduction inhibition, where XTT ((2,3-bis[2-methoxy-4-nitro-5-sulfophenyl]-5-[(phenylamino)carbonyl]-2H-tetrazolium, inner salt, monosodium salt) is a redox dye that indicates microbial respiratory activity by a change in optical density (OD) measured at 490 nm or 450 nm. However, there are a variety of other methods available for testing the activity of disinfectants and antiseptics including, but not limited to viable plate counts, direct microscopic counts, dry weight, turbidity measurements, absorbance, and bioluminescence (see, for example Brock, Semour S., Disinfection, Sterilization, and Preservation, 5th edition, Lippincott Williams & Wilkins, Philadelphia, Pa., USA; 2001).
The filtered enzyme-generated product mixture was diluted 1:5 with sterile water, and the resulting solution was further diluted with sterile water in four 1:1 serial dilutions to obtain the concentrations of PAA and hydrogen peroxide listed in Table 22.
The 1:5 dilution and four serial dilutions were evaluated for biocidal activity by mixing 0.100 mL of the PAA-containing solution with 0.100 mL of an inoculum containing 2.7×10^6 CFU/mL of E. coli ATCC 11229 (American Type Culture Collection, Manassas, Va.) in Millers LB broth diluted with Butterfield Buffer; eight replicates of each mixture were contained in individual wells of a sterile 96-well microtiter plate. After the resulting cell suspensions were allowed to stand for 10 minutes at room temperature, they were tested for viability using the growth indicator XTT (2,3-bis[2-methoxy-4-nitro-5-sulfophenyl]-5-[(phenylamino)carbonyl]-2H-tetrazolium, inner salt, monosodium salt; CAS RN 111072-31-2) according to the method of Gabrielson et al. (J. Microbiol. Methods, 50:63-73 (2002)).
Separately, the cell inoculum was treated with sterile solutions of triacetin (Table 24) or hydrogen peroxide in 50 mM phosphate buffer (pH 6.5) (Table 25) at the concentrations present in each of the biocide dilutions in Table 23 to determine the MBC for these components of the biocide solution.

[4] = molecular target: protease subtilisin from Bacillus amyloliquefaciens (Bacillus amyloliquefaciens, UniProt P00782); conditions: cited from earlier work
[5] = Protease-catalyzed perhydrolysis of acetamide at pH 4.0 (Example 6); type: biochemical; conditions: pH 4.0, 500 mM H2O2, 1 mg protease
Experimental: (§1) Into a 4-mL glass vial with stir bar was added 1 mg protease (Table 6) in 0.050 mL of 50 mM sodium acetate/acetic acid buffer (pH 4.0), 0.900 mL of an aqueous mixture containing either a) acetamide (278 mM) in 50 mM sodium acetate/acetic acid buffer (pH 4.0) or b) diacetamide (278 mM) in 50 mM sodium acetate/acetic acid buffer (pH 4.0), and 0.052 mL 30% hydrogen peroxide (500 mM final concentration). […] A portion of the filtered reaction samples was diluted 1:10 with dd water and analyzed for hydrogen peroxide, and the remaining portion of the sample was directly analyzed for peracid using the HPLC assay method (Table 7).

[6] = Protease-catalyzed perhydrolysis of diacetamide at pH 4.0 (Example 6); type: biochemical; conditions: pH 4.0, 500 mM H2O2, 1 mg protease
Experimental: as §1

[7] = Protease-catalyzed perhydrolysis of triacetin at pH 4.0 (Example 7); type: biochemical; conditions: pH 4.0, 500 mM H2O2, 1 mg protease
Experimental: as §1, with “triacetin” for “either a) acetamide (278 mM) in 50 mM sodium acetate/acetic acid buffer (pH 4.0) or b) diacetamide”, “8).” for “7).”

[8] = Protease-catalyzed perhydrolysis of triacetin at pH 6.5 (Example 8); type: biochemical; conditions: pH 6.5, 500 mM H2O2, 1 mg protease
Experimental: The analytical procedure described by U. Karst et al. (Anal. Chem., 69 (17):3623-3627 (1997)) was employed, as described herein, for analysis of product mixtures containing peracid and hydrogen peroxide. Briefly, the concentration of peracetic acid (PAA) in analyzed samples ranged from 0.025 mM-10 mM, and the concentration of H2O2 ranged from 0.075 mM-3 mM. Reaction mixtures containing peracid and/or hydrogen peroxide were, if necessary prior to analysis, diluted to produce a concentration of peracid or peroxide in these ranges. Into a 4-mL vial was placed 0.100 mL of 20 mM methyl p-tolyl sulfide (MTS) in acetonitrile, 0.300 mL of distilled and deionized water (dd) and 0.100 mL of sample solution (undiluted or diluted with dd water by a factor of up to 1:25 for analysis of peracid), or 0.100 mL of 20 mM MTS in acetonitrile and 0.390 mL of dd water were added to 0.010 mL of a 1:10 dilution of sample solution (for analysis of hydrogen peroxide). After a reaction time of 10 minutes (in the dark, with no stirring), 0.400 mL CH3CN and 0.100 mL of 40-mM triphenylphosphine (TPP) in CH3CN were added to start the second derivatization reaction for detection of peroxide. The solution was left standing in the dark for 30 min to complete the assay reaction. At the end of 30 minutes, 0.100 mL of 10 mM N,N-diethyl-m-toluamide (DEET, HPLC external standard) was added and the resulting solution analyzed by HPLC: Supelco Discovery C8 10-cm column with pre-column, 10-μL injection, UV detection at 225 nm, solvent A: acetonitrile, solvent B: deionized water, 1 mL/min gradient as follows: […]
Into a 4-mL glass vial with stir bar was added 1 mg protease (Table 6) in 0.050 mL of 50 mM sodium phosphate buffer (pH 6.5), 0.900 mL of an aqueous mixture containing triacetin (278 mM) in 50 mM phosphate buffer (pH 6.5), and 0.052 mL 30% hydrogen peroxide (500 mM final concentration). After stirring for 5 or 30 minutes at 22° C., a 0.250 mL sample was filtered using a 30,000 NMWL filter (Millipore UltraFree-MC) centrifuged for 2 minute at 12,000 RPM. A portion of the filtered reaction samples was diluted 1:10 with dd water and analyzed for hydrogen peroxide, and the remaining portion of the sample was directly analyzed for peracid using the HPLC assay method (Table 9).

[9] = Protease-catalyzed perhydrolysis of acetamide at pH 6.5 (Example 9); type: biochemical; conditions: pH 6.5, 500 mM H2O2, 1 mg protease
Experimental: as §1, with “potassium phosphate” for “sodium acetate/acetic acid”, “6.5),” for “4.0),”, “6.5)” for “4.0)”, “10).” for “7).”

[10] = Protease-catalyzed perhydrolysis of diacetamide at pH 6.5 (Example 9); type: biochemical; conditions: pH 6.5, 500 mM H2O2, 1 mg protease
Experimental: as §1, with “potassium phosphate” for “sodium acetate/acetic acid”, “6.5),” for “4.0),”, “6.5)” for “4.0)”, “10).” for “7).”

Sequence of protease subtilisin from Bacillus amyloliquefaciens (P00782 108-382): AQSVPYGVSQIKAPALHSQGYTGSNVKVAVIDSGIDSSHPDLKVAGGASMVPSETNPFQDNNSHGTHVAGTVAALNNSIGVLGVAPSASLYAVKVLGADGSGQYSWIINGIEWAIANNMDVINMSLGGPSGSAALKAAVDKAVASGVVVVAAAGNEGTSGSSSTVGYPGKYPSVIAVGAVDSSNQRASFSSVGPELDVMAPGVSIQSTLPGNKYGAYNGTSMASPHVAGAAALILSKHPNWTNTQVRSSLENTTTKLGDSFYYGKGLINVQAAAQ

Neutrase ®: Novozymes; a neutral protease from Bacillus amyloliquefaciens
peracetic acid (ppm), 5 min ([1]; pH 4.0): 0 ppm | peracetic acid (ppm), 30 min ([1]; pH 4.0): 0 ppm | peracetic acid (ppm), 5 min ([1]; pH 6.5): 110 ppm | peracetic acid (ppm), 30 min ([1]; pH 6.5): 300 ppm | peracetic acid (ppm), 5 min ([2]; pH 4.0, 5 min): 50 ppm | peracetic acid (ppm), 30 min ([2]; pH 4.0, 30 min): 110 ppm | peracetic acid (ppm), 5 min ([2]; pH 6.5, 5 min): 50 ppm | peracetic acid (ppm), 30 min ([2]; pH 6.5, 30 min): 110 ppm

acetyl cholinesterase
propyl acetate (200 mM), H2O2 (200 mM) peracetic acid (ppm), 5 min ([3]; 5 min): 0 ppm | propyl acetate (200 mM), H2O2 (200 mM) peracetic acid (ppm), 30 min ([3]; 30 min): 0 ppm

OO [Hydrogen Peroxide, hydrogen peroxide]
MBC (E. coli ATCC 11229; Escherichia coli, ATCC11229, 10 min, E. coli ATCC 11229, 1.35×10^6 CFU/mL, 10 minutes at room temperature, XTT, six-log kill, read-out: Minimum Biocidal Concentration (MBC)): > 170 µg/mL | blank-corrected mean OD (E. coli ATCC 11229; H2O2 42.5 ppm): 1.710 | mean replicate OD (450 nm) (E. coli ATCC 11229; H2O2 42.5 ppm): 2.134 | replicate OD (450 nm) (E. coli ATCC 11229; H2O2 42.5 ppm): 2.007 and 2.027 and 1.971 and 2.117 and 2.666 and 2.170 and 2.082 and 2.034 | blank-corrected mean OD (E. coli ATCC 11229; H2O2 85.1 ppm): 1.466 | mean replicate OD (450 nm) (E. coli ATCC 11229; H2O2 85.1 ppm): 1.890 | replicate OD (450 nm) (E. coli ATCC 11229; H2O2 85.1 ppm): 1.889 and 1.815 and 1.795 and 1.962 and 2.153 and 1.880 and 1.793 and 1.834 | blank-corrected mean OD (E. coli ATCC 11229; H2O2 170.1 ppm): 0.005 | mean replicate OD (450 nm) (E. coli ATCC 11229; H2O2 170.1 ppm): 0.4295 | replicate OD (450 nm) (E. coli ATCC 11229; H2O2 170.1 ppm): 0.435 and 0.402 and 0.424 and 0.462 and 0.414 and 0.401 and 0.422 and 0.470 | blank-corrected mean OD (E. coli ATCC 11229; H2O2 340.2 ppm): 0.009 | mean replicate OD (450 nm) (E. coli ATCC 11229; H2O2 340.2 ppm): 0.433 | replicate OD (450 nm) (E. coli ATCC 11229; H2O2 340.2 ppm): 0.423 and 0.439 and 0.425 and 0.432 and 0.452 and 0.440 and 0.428 and 0.424 | blank-corrected mean OD (E. coli ATCC 11229; H2O2 680.5 ppm): 0.016 | mean replicate OD (450 nm) (E. coli ATCC 11229; H2O2 680.5 ppm): 0.440 | replicate OD (450 nm) (E. coli ATCC 11229; H2O2 680.5 ppm): 0.433 and 0.440 and 0.426 and 0.430 and 0.453 and 0.456 and 0.436 and 0.446 | inactivation of the protease subtilisin ([4]; 0.1 M hydrogen peroxide, in less than 6 minutes): > 80% | inactivation of the protease subtilisin ([4]; 1.0 M hydrogen peroxide, in less than 4 minutes): > 80%

Pepsin
acetamide (250 mM) peracetic acid (ppm), 5 min ([5]; 5 min): 45 ppm | acetamide (250 mM) peracetic acid (ppm), 30 min ([5]; 30 min): 65 ppm | diacetamide (250 mM) peracetic acid (ppm), 5 min ([6]; 5 min): 97 ppm | diacetamide (250 mM) peracetic acid (ppm), 30 min ([6]; 30 min): 120 ppm | triacetin (250 mM) peracetic acid (ppm), 5 min ([7]; 5 min): 65 ppm | triacetin (250 mM) peracetic acid (ppm), 30 min ([7]; 30 min): 44 ppm | triacetin (250 mM) peracetic acid (ppm), 5 min ([8]; 5 min): 111 ppm | triacetin (250 mM) peracetic acid (ppm), 30 min ([8]; 30 min): 163 ppm | acetamide (250 mM) peracetic acid (ppm), 5 min ([9]; 5 min): 81 ppm | acetamide (250 mM) peracetic acid (ppm), 30 min ([9]; 30 min): 67 ppm | diacetamide (250 mM) peracetic acid (ppm), 5 min ([10]; 5 min): 259 ppm | diacetamide (250 mM) peracetic acid (ppm), 30 min ([10]; 30 min): 198 ppm
